≈ marks a conversion by molar mass, not a printed value. Where “and” joins values, the source holds several entries; their conditions need not be identical. Equal entries are not always repeated.
Key:
MCF-7 (breast cancer) [1] = settings: for Cytotoxic activity IC50 MCF-7 line (breast cancer): human, 72 h
Description: (§1) Cytotoxicity tests were carried out using a standard procedure with sulphorhodamine B. They involved incubation of the cancer cell lines in the logarithmic growth phase for 72 hours with the compound tested and, subsequently, spectrophotometric determination of the degree of cell growth inhibition using adsorption of a dye (sulphorhodamine B) which binds cellular proteins.
(§2) Cells of the cell line tested in the logarithmic growth phase were seeded onto 24-well plates in a quantity of 20,000 cells/2 mL of the growth medium per well and, subsequently, incubated in an incubator at 37° C., in the 5% CO2 atmosphere for 24 hours.
(§3) Solutions of the test compounds were prepared in DMSO in the following concentration range: 0.05; 0.1; 0.5; 1; 5; 10; 50; 100; 500 μM.
(§4) The cells of the lines tested were treated with the solutions of the test compounds in a laminar-flow chamber which ensured sterile working conditions according to the following procedure: the first three wells were used as a blank: they contained 20 μL of DMSO only; successive solutions of the test compound were added to subsequent wells (20 μL), starting with the lowest concentration (three wells for each concentration level). Subsequently, the plates were placed in an incubator for 72 hours.
(§5) After the end of incubation, the adhered cells were fixed by adding 500 μL of cold (4° C. 50% trichloroacetic acid (TCA) and incubated at 4° C. for 1 hour. Subsequently, each well was rinsed with sterile water and dried. The operation was repeated five times. The fixed cells were stained for 30 minutes by adding 500 μL of 0.4% of a dye solution (sulphorhodamine B) dissolved in 1% acetic acid. Any unbound dye was removed by decanting it from the plate, and the cells were washed 4 times with 1% acetic acid. Subsequently, the plates were dried in air for approx. 5 minutes. Any unbound dye was dissolved by adding 1500 μL of 10 mM Tris-base buffer (trishydroxymethylaminomethane) to each well and shaken using an orbital shaker for 5 minutes. Subsequently, 200 μL of solution from each well was transferred to each of two wells on a new 96-well plate and absorption of the solutions was determined spectrophotometrically at a wavelength of 490-530 nm using a plate reader. Percentage inhibition of cell growth by the test compound was calculated assuming the absorption of the control solution as 100%.
(§6) Depending on the type of the cell line, the following growth media were used: • the MCF-7 line was grown in Dulbecco's Modified Eagle's Medium (DME) from Sigma (cat. no. D5796), • the HeLa and Hep-G2 lines were grown in PPMI-1640 Medium from Sigma (cat. no. R8758).

HeLa (cervical cancer) [2] = settings: for Cytotoxic activity IC50 HeLa (cervical cancer): human, 72 h
Description: as §1, §2, §3, §4, §5, §6

HeLa (cervical cancer) [3] = assay: Cytotoxicity test with sulphorhodamine B, HeLa line; settings: for IC50: Homo sapiens, 72 h, read-out: Cytotoxic activity IC50 HeLa (cervical cancer), 72 hours incubation, average of three independent determinations
Description: as §1, §2, §3, §4, §5, §6

MCF-7 (breast cancer) [4] = assay: Cytotoxicity test with sulphorhodamine B, MCF-7 line; settings: for IC50: Homo sapiens, MCF7, 72 h, read-out: Cytotoxic activity IC50 MCF-7 line (breast cancer), 72 hours incubation, average of three independent determinations
Description: as §1, §2, §3, §4, §5, §6

Hep-G2 (hepatic cancer) = assay: Cytotoxicity test with sulphorhodamine B, Hep-G2 line; assay type: cell-based; settings: for fold higher activity than AddFU: Hep-G2, ratio of IC50; for IC50: Homo sapiens, HepG2, 72 hours incubation, average of three independent determinations, read-out: Cytotoxic activity IC50 Hep-G2 (hepatic cancer)
Description: The values are average results of three independent determinations.

[5] = system: L1210 cancer in mice induced by MLV retroviruses; settings: literature (Colla et al. 1985); cited from earlier work
sarcoma 180 = settings: literature (Lin et al. 1983); cited from earlier work

Row | Compound | IC50 (HeLa (cervical cancer) [3]) | IC50 (MCF-7 (breast cancer) [4]) | fold higher activity than AddFU (Hep-G2 (hepatic cancer)) | IC50 (Hep-G2 (hepatic cancer)) | cytotoxic activity in words, cervical cancer cells (HeLa line) (HeLa (cervical cancer) [2]) | other results
1 | COc1ccc2nccc([C@H](O)[C@H]3CC4CC[N@]3CC4c3cn(C4CC(n5cc(F)c(=O)[nH]c5=O)OC4CO)nn3)c2c1 (stereo partly drawn) [QD5FdU, 5-Fluoro-1-[4-(4-{6-[hydroxy-(6-methoxyquinolin-4-yl)-methyl]-1-aza-bicyclo[2.2.2]oct-3-yl}-[1,2,3]triazol-1-yl)-5-hydroxymethyl-tetrahydro-furan-2-yl]-1H-pyrimidine-2,4-dione] | 1.6 µg/mL to 2.8 µg/mL and 2.7 µM | 0.98 µg/mL to 1.5 µg/mL and 1.65 µM | – | – | – | Cytotoxic activity IC50 MCF-7 line (breast cancer) (MCF-7 (breast cancer) [1]): 0.98 µg/mL; Cytotoxic activity IC50 HeLa (cervical cancer) (HeLa (cervical cancer) [2]): 1.6 µg/mL
2 | C=CC1C[N@@]2CCC1C[C@H]2[C@H](OCc1cn(C2CC(n3cc(F)c(=O)[nH]c3=O)OC2CO)nn1)c1ccnc2ccc(OC)cc12 (stereo partly drawn) [PQN5FdU, 5-Fluoro-1-(5-hydroxymethyl-4-{4-[(6-methoxyquinolin-4-yl)-(5-vinyl-1-aza-bicyclo[2.2.2]oct-2-yl)-methoxymethyl]-[1,2,3]triazol-1-yl}-tetrahydrofuran-2-yl)-1H-pyrimidine-2,4-dione] | 1.6 µg/mL to 2.8 µg/mL and 3.16 µM | 0.98 µg/mL to 1.5 µg/mL and 2.37 µM | more than twice as high | 6.2 µg/mL and 9.78 µM | – | Cytotoxic activity IC50 MCF-7 line (breast cancer) (MCF-7 (breast cancer) [1]): 1.5 µg/mL; Cytotoxic activity IC50 HeLa (cervical cancer) (HeLa (cervical cancer) [2]): 2.0 µg/mL
3 | [N-]=[N+]=N[C@H]1C[C@H](n2cc(F)c(=O)[nH]c2=O)O[C@@H]1CO [3′-azido-2′,3′-dideoxy-5-fluorouridine, reference compound] | 3 µg/mL and 11.1 µM | 2.2 µg/mL and 8.11 µM | – | 16 µg/mL and 59 µM | – | IC50 against L1210 cancer [5]: 34 µg/mL (≈ 125 µM); activity against sarcoma 180 in vitro, in words (sarcoma 180): weak activity
4 | C=CC1C[N@@]2CCC1C[C@H]2[C@H](OCc1cn(C2CC(n3cc(F)c(=O)[nH]c3=O)OC2CO)nn1)c1ccnc2ccccc12 (stereo partly drawn) [PCD5FdU, 5-Fluoro-1-(5-hydroxymethyl-4-{4-[quinolin-4-yl-(5-vinyl-1-aza-bicyclo[2.2.2]oct-2-yl)-methoxymethyl]-[1,2,3]triazol-1-yl}-tetrahydrofuran-2-yl)-1H-pyrimidine-2,4-dione] | 21.4 µg/mL and 35.5 µM | 13 µg/mL and 21.5 µM | – | – | medium active | –
5 | O=c1[nH]c(=O)n(C2CC(n3cc(C4CN5CCC4C[C@@H]5[C@@H](O)c4ccnc5ccccc45)nn3)C(CO)O2)cc1F (stereo partly drawn) [CN5FdU, 5-Fluoro-1-(5-hydroxymethyl-4-{4-[6-(hydroxy-quinolin-4-yl-methyl)-1-aza-bicyclo[2.2.2]oct-3-yl]-[1,2,3]triazol-1-yl}-tetrahydro-furan-2-yl)-1H-pyrimidine-2,4-dione] | 7.9 µg/mL and 14 µM | 7 µg/mL and 12.4 µM | – | – | medium active | –
6 | C=CC1C[N@@]2CCC1C[C@@H]2[C@@H](OCc1cn(C2CC(n3cc(F)c(=O)[nH]c3=O)OC2CO)nn1)c1ccnc2ccc(OC)cc12 (stereo partly drawn) [PQD5FdU, 5-Fluoro-1-(5-hydroxymethyl-4-{4-[(6-methoxyquinolin-4-yl)-(5-vinyl-1-aza-bicyclo[2.2.2]oct-2-yl)-methoxymethyl]-[1,2,3]triazol-1-yl}-tetrahydrofuran-2-yl)-1H-pyrimidine-2,4-dione] | 2.8 µg/mL and 4.42 µM | 2.9 µg/mL and 4.58 µM | more than twice as high | 6 µg/mL and 9.47 µM | – | cytotoxic activity in words, breast cancer cells (MCF-7 (breast cancer) [1]): medium active
7 | O=c1[nH]c(=O)n([C@H]2C[C@H](O)[C@@H](CO)O2)cc1F [5-fluoro-2′-deoxyuridine, reference compound] | 3.2 µg/mL and 13 µM | 2.81 µg/mL and 11.4 µM | – | – | – | –
8 | C=CC1C[N@@]2CCC1C[C@@H]2C(OCc1cn(C2CC(n3cc(F)c(=O)[nH]c3=O)OC2CO)nn1)c1ccnc2ccccc12 (stereo partly drawn) [PCN5FdU, 5-Fluoro-1-(5-hydroxymethyl-4-{4-[quinolin-4-yl-(5-vinyl-1-aza-bicyclo[2.2.2]oct-2-yl)-methoxymethyl]-[1,2,3]triazol-1-yl}-tetrahydrofuran-2-yl)-1H-pyrimidine-2,4-dione] | 27.6 µg/mL and 45.7 µM | 27.2 µg/mL and 45.1 µM | – | – | medium active | –
9 | COc1ccc2nccc(C(O)[C@@H]3CC4CCN3CC4c3cn(C4CC(n5cc(F)c(=O)[nH]c5=O)OC4CO)nn3)c2c1 (stereo partly drawn) [QN5FdU, 5-Fluoro-1-[4-(4-{6-[hydroxy-(6-methoxyquinolin-4-yl)-methyl]-1-aza-bicyclo[2.2.2]oct-3-yl}-[1,2,3]triazol-1-yl)-5-hydroxymethyl-tetrahydro-furan-2-yl]-1H-pyrimidine-2,4-dione] | 0.16 µg/mL and 270 nM | 0.16 µg/mL and 270 nM | 4 fold | 3.8 µg/mL and 6.4 µM | – | fold higher activity than 5FdU (HeLa (cervical cancer) [3]; ratio of IC50): more than 20 fold; fold higher activity than AddFU (HeLa (cervical cancer) [3]; ratio of IC50): more than 18 fold; fold higher activity than 5FdU (MCF-7 (breast cancer) [4]; MCF-7, ratio of IC50): more than 17.5 fold; fold higher activity than AddFU (MCF-7 (breast cancer) [4]; MCF-7, ratio of IC50): more than 13 fold
10 | O=c1[nH]c(=O)n(C2CC(n3cc(C4CN5CCC4C[C@H]5[C@H](O)c4ccnc5ccccc45)nn3)C(CO)O2)cc1F (stereo partly drawn) [CD5FdU, 5-Fluoro-1-(5-hydroxymethyl-4-{4-[6-(hydroxy-quinolin-4-yl-methyl)-1-aza-bicyclo[2.2.2]oct-3-yl]-[1,2,3]triazol-1-yl}-tetrahydro-furan-2-yl)-1H-pyrimidine-2,4-dione] | 7 µg/mL and 12.4 µM | 6.9 µg/mL and 12.2 µM | – | – | medium active | –
